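Results reflect a 48-hour exposure of cells in 96-well plates to compound at five concentrations. TGI: total growth inhibition.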
What was measured:
Test in all cases: DTP human tumour cell line panel, 48 h
786-0 renal = system: 786-0 renal
A498 renal = system: A498 renal
A549 NSCLC = system: A549 NSCLC
ACHN renal = system: ACHN renal
BT-549 breast = system: BT-549 breast
CAKI-1 renal = system: CAKI-1 renal
CCRF-CEM leukemia = system: CCRF-CEM leukemia
COLO 205 colon = system: COLO 205 colon
DU-145 prostate = system: DU-145 prostate
EKVX NSCLC = system: EKVX NSCLC
HCC-2998 colon = system: HCC-2998 colon
HCT-116 colon = system: HCT-116 colon
HCT-15 colon = system: HCT-15 colon
HL-60(TB) leukemia = system: HL-60(TB) leukemia
HOP-62 NSCLC = system: HOP-62 NSCLC
HOP-92 NSCLC = system: HOP-92 NSCLC
HS 578T breast = system: HS 578T breast
HT29 colon = system: HT29 colon
IGROV1 ovarian = system: IGROV1 ovarian
K-562 leukemia = system: K-562 leukemia
KM12 colon = system: KM12 colon
LOX IMVI melanoma = system: LOX IMVI melanoma
M14 melanoma = system: M14 melanoma
MALME-3M melanoma = system: MALME-3M melanoma
MCF7 breast = system: MCF7 breast
MDA-MB-231 breast = system: MDA-MB-231 breast
MDA-MB-435 = system: MDA-MB-435
MDA-N = system: MDA-N
MOLT-4 leukemia = system: MOLT-4 leukemia
NCI-H226 lung = system: NCI-H226 lung
NCI-H23 lung = system: NCI-H23 lung
NCI-H460 lung = system: NCI-H460 lung
NCI-H522 lung = system: NCI-H522 lung
NCI/ADR-RES ovarian = system: NCI/ADR-RES ovarian
OVCAR-3 ovarian = system: OVCAR-3 ovarian
OVCAR-4 ovarian = system: OVCAR-4 ovarian
OVCAR-5 ovarian = system: OVCAR-5 ovarian
OVCAR-8 ovarian = system: OVCAR-8 ovarian
PC-3 prostate = system: PC-3 prostate
RXF 393 renal = system: RXF 393 renal
SF-268 CNS = system: SF-268 CNS
SF-295 CNS = system: SF-295 CNS
SK-MEL-28 melanoma = system: SK-MEL-28 melanoma
SK-MEL-5 melanoma = system: SK-MEL-5 melanoma
SK-OV-3 ovarian = system: SK-OV-3 ovarian
SN12C renal = system: SN12C renal
SNB-19 CNS = system: SNB-19 CNS
SNB-75 CNS = system: SNB-75 CNS
SR leukemia = system: SR leukemia
SW-620 colon = system: SW-620 colon
T-47D breast = system: T-47D breast
TK-10 renal = system: TK-10 renal
U251 CNS = system: U251 CNS
UACC-257 melanoma = system: UACC-257 melanoma
UACC-62 melanoma = system: UACC-62 melanoma
UO-31 renal = system: UO-31 renal
RPMI-8226 leukemia = system: RPMI-8226 leukemia
SF-539 CNS = system: SF-539 CNS
SK-MEL-2 melanoma = system: SK-MEL-2 melanoma

Work on `CCc1nnc(-n2c(C)nc3cc(Cl)ccc3c2=O)s1` yielded a TGI (786-0 renal) of 81.6 µM, a TGI (A498 renal) of over 100 µM and a TGI (A549 NSCLC) of over 100 µM. The TGI (ACHN renal) was over 100 µM, the TGI (BT-549 breast) was over 100 µM and the TGI (CAKI-1 renal) was over 100 µM. The TGI (CCRF-CEM leukemia) was 56.7 µM, the TGI (COLO 205 colon) was over 100 µM and the TGI (DU-145 prostate) was over 100 µM. For the same compound, the TGI (EKVX NSCLC) was over 100 µM, the TGI (HCC-2998 colon) was over 100 µM and the TGI (HCT-116 colon) was over 100 µM. The TGI (HCT-15 colon) was over 100 µM, the TGI (HL-60(TB) leukemia) was over 100 µM and the TGI (HOP-62 NSCLC) was over 100 µM. The TGI (HOP-92 NSCLC) was 99.2 µM, the TGI (HS 578T breast) was over 100 µM and the TGI (HT29 colon) was over 100 µM. For the same compound, the TGI (IGROV1 ovarian) was over 100 µM, the TGI (K-562 leukemia) was over 100 µM and the TGI (KM12 colon) was over 100 µM. It also gave a TGI (LOX IMVI melanoma) of over 100 µM, a TGI (M14 melanoma) of over 100 µM and a TGI (MALME-3M melanoma) of 93.1 µM. For the same compound, the TGI (MCF7 breast) was over 100 µM, the TGI (MDA-MB-231 breast) was over 100 µM and the TGI (MDA-MB-435) was over 100 µM. For the same compound, the TGI (MDA-N) was 49.1 µM, the TGI (MOLT-4 leukemia) was over 100 µM and the TGI (NCI-H226 lung) was over 100 µM. The TGI (NCI-H23 lung) was over 100 µM, the TGI (NCI-H460 lung) was over 100 µM and the TGI (NCI-H522 lung) was 75.4 µM. It also gave a TGI (NCI/ADR-RES ovarian) of over 100 µM, a TGI (OVCAR-3 ovarian) of 43 µM and a TGI (OVCAR-4 ovarian) of over 100 µM. For the same compound, the TGI (OVCAR-5 ovarian) was over 100 µM, the TGI (OVCAR-8 ovarian) was over 100 µM and the TGI (PC-3 prostate) was over 100 µM. For the same compound, the TGI (RXF 393 renal) was over 100 µM, the TGI (SF-268 CNS) was over 100 µM and the TGI (SF-295 CNS) was over 100 µM. The TGI (SK-MEL-28 melanoma) was over 100 µM, the TGI (SK-MEL-5 melanoma) was 65.9 µM and the TGI (SK-OV-3 ovarian) was over 100 µM. It also gave a TGI (SN12C renal) of over 100 µM, a TGI (SNB-19 CNS) of over 100 µM and a TGI (SNB-75 CNS) of 92.8 µM. The TGI (SR leukemia) was over 100 µM, the TGI (SW-620 colon) was over 100 µM and the TGI (T-47D breast) was over 100 µM. The TGI (TK-10 renal) was over 100 µM, the TGI (U251 CNS) was over 100 µM and the TGI (UACC-257 melanoma) was over 100 µM. It also gave a TGI (UACC-62 melanoma) of 61.7 µM and a TGI (UO-31 renal) of over 100 µM.
`CC1=C(C(=O)OCCc2ccc([N+](=O)[O-])cc2)C(c2ccccc2[N+](=O)[O-])C(C(=O)OC(C)C)=C(C)N1` (stereo not drawn) gave a TGI (786-0 renal) of 17.9 µM, a TGI (A549 NSCLC) of over 100 µM and a TGI (ACHN renal) of over 100 µM. The TGI (BT-549 breast) was 71.2 µM, the TGI (CAKI-1 renal) was over 100 µM and the TGI (CCRF-CEM leukemia) was 23.2 µM. The TGI (COLO 205 colon) was over 100 µM, the TGI (DU-145 prostate) was over 100 µM and the TGI (EKVX NSCLC) was 39.2 µM. The TGI (HCC-2998 colon) was over 100 µM, the TGI (HCT-116 colon) was over 100 µM and the TGI (HCT-15 colon) was over 100 µM. For the same compound, the TGI (HL-60(TB) leukemia) was 8.48 µM, the TGI (HOP-62 NSCLC) was over 100 µM and the TGI (HS 578T breast) was over 100 µM. For the same compound, the TGI (HT29 colon) was over 100 µM, the TGI (IGROV1 ovarian) was over 100 µM and the TGI (K-562 leukemia) was over 100 µM. It also gave a TGI (KM12 colon) of over 100 µM, a TGI (LOX IMVI melanoma) of over 100 µM and a TGI (M14 melanoma) of 36.7 µM. The TGI (MALME-3M melanoma) was over 100 µM, the TGI (MCF7 breast) was over 100 µM and the TGI (MDA-MB-231 breast) was over 100 µM. The TGI (MDA-MB-435) was over 100 µM, the TGI (MDA-N) was over 100 µM and the TGI (MOLT-4 leukemia) was 9.93 µM. The TGI (NCI-H226 lung) was 65.3 µM, the TGI (NCI-H23 lung) was over 100 µM and the TGI (NCI-H460 lung) was over 100 µM. The TGI (NCI-H522 lung) was 7.82 µM, the TGI (NCI/ADR-RES ovarian) was 20 µM and the TGI (OVCAR-3 ovarian) was over 100 µM. It also gave a TGI (OVCAR-4 ovarian) of over 100 µM, a TGI (OVCAR-5 ovarian) of over 100 µM and a TGI (OVCAR-8 ovarian) of over 100 µM. For the same compound, the TGI (PC-3 prostate) was 18 µM, the TGI (RPMI-8226 leukemia) was over 100 µM and the TGI (RXF 393 renal) was 35.9 µM. It also gave a TGI (SF-268 CNS) of over 100 µM, a TGI (SF-295 CNS) of over 100 µM and a TGI (SF-539 CNS) of over 100 µM. The TGI (SK-MEL-2 melanoma) was 40.9 µM, the TGI (SK-MEL-28 melanoma) was over 100 µM and the TGI (SK-MEL-5 melanoma) was 5.14 µM. For the same compound, the TGI (SK-OV-3 ovarian) was over 100 µM, the TGI (SN12C renal) was over 100 µM and the TGI (SNB-19 CNS) was over 100 µM. For the same compound, the TGI (SNB-75 CNS) was over 100 µM, the TGI (SR leukemia) was over 100 µM and the TGI (SW-620 colon) was over 100 µM. For the same compound, the TGI (T-47D breast) was over 100 µM, the TGI (TK-10 renal) was over 100 µM and the TGI (U251 CNS) was over 100 µM. It also gave a TGI (UACC-257 melanoma) of over 100 µM, a TGI (UACC-62 melanoma) of 58.4 µM and a TGI (UO-31 renal) of over 100 µM.

Reference: PubChem BioAssay (NCI)
